Reference: US8877748B2, “Heterocyclic fused anthraquinone derivatives, manufacturing method and pharmaceutical composition using thereof” (National Defense Medical Center, priority 2012, dated 2014)

Experiments:
UACC-257 = assay: NCI one-dose screening, melanoma UACC-257; assay type: cell-based, human; details: 10 μM
U251 = assay: NCI one-dose screening, CNS cancer U251; assay type: cell-based, human; details: 10 μM
ACHN = assay: NCI one-dose screening, renal cancer ACHN; assay type: cell-based, human; details: 10 μM
TK-10 = assay: NCI one-dose screening, renal cancer TK-10; assay type: cell-based, human; details: 10 μM
M14 = assay: NCI one-dose screening, melanoma M14; assay type: cell-based, human; details: 10 μM
SF-268 = assay: NCI one-dose screening, CNS cancer SF-268; assay type: cell-based, human; details: 10 μM
CCRF-CEM = assay: NCI screening platform one-dose single concentration screening, leukemia CCRF-CEM; assay type: cell-based, human; details: 10 μM
MDA, -MB-435 = assay: NCI one-dose screening, breast cancer MDA, -MB-435; assay type: cell-based, human; details: 10 μM; listed under Melanoma
NCI-H460 = assay: NCI one-dose screening, non-small cell lung cancer NCI-H460; assay type: cell-based, human; details: 10 μM
SN12C = assay: NCI one-dose screening, renal cancer SN12C; assay type: cell-based, human; details: 10 μM
OVCAR-3 = assay: NCI one-dose screening, ovarian cancer OVCAR-3; assay type: cell-based, human; details: 10 μM
NCI-H23 = assay: NCI one-dose screening, non-small cell lung cancer NCI-H23; assay type: cell-based, human; details: 10 μM
HCT-116 = assay: NCI one-dose screening, colon cancer HCT-116; assay type: cell-based, human; details: 10 μM
SNB-19 = assay: NCI one-dose screening, CNS cancer SNB-19; assay type: cell-based, human; details: 10 μM
SK-MEL-2 = assay: NCI one-dose screening, melanoma SK-MEL-2; assay type: cell-based, human; details: 10 μM
HL-60, TB = assay: NCI one-dose screening, leukemia HL-60, TB; assay type: cell-based, human; details: 10 μM
SK-MEL-28 = assay: NCI one-dose screening, melanoma SK-MEL-28; assay type: cell-based, human; details: 10 μM
CAKI-1 = assay: NCI one-dose screening, renal cancer CAKI-1; assay type: cell-based, human; details: 10 μM
UACC-62 = assay: NCI one-dose screening, melanoma UACC-62; assay type: cell-based, human; details: 10 μM
KM12 = assay: NCI one-dose screening, colon cancer KM12; assay type: cell-based, human; details: 10 μM
A549/ATCC = assay: NCI one-dose screening, non-small cell lung cancer A549/ATCC; assay type: cell-based, human; details: 10 μM
LOX IMVI = assay: NCI one-dose screening, melanoma LOX IMVI; assay type: cell-based, human; details: 10 μM
MOLT-4 = assay: NCI one-dose screening, leukemia MOLT-4; assay type: cell-based, human; details: 10 μM
NCI-H522 = assay: NCI one-dose screening, non-small cell lung cancer NCI-H522; assay type: cell-based, human; details: 10 μM
IGROV1 = assay: NCI one-dose screening, ovarian cancer IGROV1; assay type: cell-based, human; details: 10 μM
NCI-H322M = assay: NCI one-dose screening, non-small cell lung cancer NCI-H322M; assay type: cell-based, human; details: 10 μM; Non-small cell lung cancer
SR = assay: NCI one-dose screening, leukemia SR; assay type: cell-based, human; details: 10 μM
SF-539 = assay: NCI one-dose screening, CNS cancer SF-539; assay type: cell-based, human; details: 10 μM
NCI-H226 = assay: NCI one-dose screening, non-small cell lung cancer NCI-H226; assay type: cell-based, human; details: 10 μM
RXF, 393 = assay: NCI one-dose screening, renal cancer RXF, 393; assay type: cell-based, human; details: 10 μM
EKVX = assay: NCI one-dose screening, non-small cell lung cancer EKVX; assay type: cell-based, human; details: 10 μM
HT29 = assay: NCI one-dose screening, colon cancer HT29; assay type: cell-based, human; details: 10 μM
[1] = system: PC-3 prostate cancer cell line; assay: SRB assay cell viability, PC-3 prostate cancer cell line; assay type: cell-based, human; details: Homo sapiens, PC-3 prostate cancer cell line, Table II prints no unit, μM printed, read-out: SRB assay: 50% inhibition of cancer cell proliferation of sample concentration (IC50) of PC-3 prostate cancer cell line
PRMI-8226 cell line = assay: NCI one-dose screening, leukemia PRMI-8226; assay type: cell-based, human; details: 10 μM
786-O = assay: NCI one-dose screening, renal cancer 786-O; assay type: cell-based, human; details: 10 μM
COLO 205 = assay: NCI one-dose screening, colon cancer COLO 205; assay type: cell-based, human; details: 10 μM
K562cell line = assay: NCI one-dose screening, leukemia K562; assay type: cell-based, human; details: 10 μM
SF-295 = assay: NCI one-dose screening, CNS cancer SF-295; assay type: cell-based, human; details: 10 μM
OVCAR-8 = assay: NCI one-dose screening, ovarian cancer OVCAR-8; assay type: cell-based, human; details: 10 μM
HCT-15 = assay: NCI one-dose screening, colon cancer HCT-15; assay type: cell-based, human; details: 10 μM
HCC-2998 = assay: NCI one-dose screening, colon cancer HCC-2998; assay type: cell-based, human; details: 10 μM
MALME-3M = assay: NCI one-dose screening, melanoma MALME-3M; assay type: cell-based, human; details: 10 μM
NCl/ADR-RES = assay: NCI one-dose screening, breast cancer NCl/ADR-RES; assay type: cell-based, human; details: 10 μM; listed under Ovarian cancer
OVCAR-4 = assay: NCI one-dose screening, ovarian cancer OVCAR-4; assay type: cell-based, human; details: 10 μM
OVCAR-5 = assay: NCI one-dose screening, ovarian cancer OVCAR-5; assay type: cell-based, human; details: 10 μM
SK-MEL-5 = assay: NCI one-dose screening, melanoma SK-MEL-5; assay type: cell-based, human; details: 10 μM
HOP-62 = assay: NCI one-dose screening, non-small cell lung cancer HOP-62; assay type: cell-based, human; details: 10 μM
SNB-75 = assay: NCI one-dose screening, CNS cancer SNB-75; assay type: cell-based, human; details: 10 μM
BT-549 = assay: NCI one-dose screening, breast cancer BT-549; assay type: cell-based, human; details: 10 μM
T-47D = assay: NCI one-dose screening, breast cancer T-47D; assay type: cell-based, human; details: 10 μM
MCF7 = assay: NCI one-dose screening, breast cancer MCF7; assay type: cell-based, human; details: 10 μM
MDA-MB-468 = assay: NCI one-dose screening, breast cancer MDA-MB-468; assay type: cell-based, human; details: 10 μM
MDA-MB-231/ATCC = assay: NCI one-dose screening, breast cancer MDA-MB-231/ATCC; assay type: cell-based, human; details: 10 μM
SK-OV-3 = assay: NCI one-dose screening, ovarian cancer SK-OV-3; assay type: cell-based, human; details: 10 μM
UO-31 = assay: NCI one-dose screening, renal cancer UO-31; assay type: cell-based, human; details: 10 μM
human tumor cell lines = assay: NCI one-dose screening, Mean / Delta / Range of growth percent over all tested cell lines; assay type: cell-based; details: 10 μM

O=C1c2ccccc2C(=O)c2c1cc(Nc1ccc(Cl)cc1F)c1nsnc21 [C65, 4-(4-chloro-2-fluoro-phenylamino)anthra [2,1-c][1,2,5]thiadiazol-6,11-dione]
Growth Percent UACC-257 (UACC-257): 50.45% | Growth Percent U251 (U251): 43.08% | Growth Percent ACHN (ACHN): 74.11% | Growth Percent TK-10 (TK-10): 110.93% | Growth Percent M14 (M14): 118.36% | Growth Percent SF-268 (SF-268): 69.25% | Growth Percent CCRF-CEM (CCRF-CEM): 29.84% | Growth Percent MDA-MB-435 (MDA, -MB-435): 27.37% | Growth Percent NCI-H460 (NCI-H460): 81.55% | Growth Percent SN12C (SN12C): 86.43% | Growth Percent OVCAR-3 (OVCAR-3): 10.25% | Growth Percent NCI-H23 (NCI-H23): 53.59% | Growth Percent HCT-116 (HCT-116): 52.51% | Growth Percent SNB-19 (SNB-19): 94.57% | Growth Percent SK-MEL-2 (SK-MEL-2): 72.52% | Growth Percent HL-60(TB) (HL-60, TB): 8.17% | Growth Percent SK-MEL-28 (SK-MEL-28): 87.69% | Growth Percent CAKI-1 (CAKI-1): 72.65% | Growth Percent UACC-62 (UACC-62): 85.80% | Growth Percent KM12 (KM12): 83.42% | Growth Percent A549/ATCC (A549/ATCC): 69.22% | Growth Percent LOX IMVI (LOX IMVI): 29.97% | Growth Percent MOLT-4 (MOLT-4): 20.18% | Growth Percent NCI-H522 (NCI-H522): 47.67% | Growth Percent IGROV1 (IGROV1): 69.50% | Growth Percent NCI-H322M (NCI-H322M): 91.66% | Growth Percent SR (SR): 23.58% | Growth Percent SF-539 (SF-539): 75.99% | Growth Percent NCI-H226 (NCI-H226): 74.35% | Growth Percent RXF 393 (RXF, 393): 66.49% | Growth Percent EKVX (EKVX): 80.90% | Growth Percent HT29 (HT29): 98.33% | IC50 [1]: > 15 µM | Growth Percent RPMI-8226 (PRMI-8226 cell line): 40.73% | Growth Percent 786-0 (786-O): 114.97% | Growth Percent COLO 205 (COLO 205): 90.97% | Growth Percent K562 (K562cell line): 35.29% | Growth Percent SF-295 (SF-295): 86.04% | Growth Percent OVCAR-8 (OVCAR-8): 36.77% | Growth Percent HCT-15 (HCT-15): 45.61% | Growth Percent HCC-2998 (HCC-2998): 97.85% | Growth Percent MALME-3M (MALME-3M): 58.74% | Growth Percent NCI/ADR-RES (NCl/ADR-RES): 48.31% | Growth Percent OVCAR-4 (OVCAR-4): −4.36% | Growth Percent OVCAR-5 (OVCAR-5): 114.60% | Growth Percent SK-MEL-5 (SK-MEL-5): 49.49% | Growth Percent HOP-62 (HOP-62): 79.67% | Growth Percent SNB-75 (SNB-75): 83.19%

CCOc1cccc(Sc2cc3c(c4nsnc24)C(=O)c2ccccc2C3=O)c1 [C50, 4-(3-ethoxy-phenylthio)anthra[2,1-c] [1,2,5]thiadiazol-6,11-dione]
Growth Percent UACC-257 (UACC-257): 126.28% | Growth Percent U251 (U251): 109.69% | Growth Percent BT-549 (BT-549): 103.88% | Growth Percent ACHN (ACHN): 103.33% | Growth Percent TK-10 (TK-10): 125.26% | Growth Percent T-47D (T-47D): 86.51% | Growth Percent M14 (M14): 103.80% | Growth Percent MCF7 (MCF7): 78.81% | Growth Percent MDA-MB-468 (MDA-MB-468): 108.00% | Growth Percent MDA-MB-435 (MDA, -MB-435): 106.07% | Growth Percent MDA-MB-231/ATCC (MDA-MB-231/ATCC): 100.81% | Growth Percent SN12C (SN12C): 104.76% | Growth Percent NCI-H23 (NCI-H23): 94.07% | Growth Percent HCT-116 (HCT-116): 100.93% | Growth Percent SNB-19 (SNB-19): 103.22% | Growth Percent SK-MEL-2 (SK-MEL-2): 102.98% | Growth Percent SK-MEL-28 (SK-MEL-28): 112.20% | Growth Percent CAKI-1 (CAKI-1): 84.23% | Growth Percent UACC-62 (UACC-62): 108.85% | Growth Percent A549/ATCC (A549/ATCC): 111.48% | Growth Percent LOX IMVI (LOX IMVI): 84.11% | Growth Percent NCI-H522 (NCI-H522): 98.19% | Growth Percent IGROV1 (IGROV1): 94.67% | Growth Percent SK-OV-3 (SK-OV-3): 99.36% | Growth Percent SF-539 (SF-539): 93.72% | Growth Percent NCI-H226 (NCI-H226): 90.47% | Growth Percent RXF 393 (RXF, 393): 118.35% | Growth Percent EKVX (EKVX): 102.26% | Growth Percent UO-31 (UO-31): 76.69% | Growth Percent HT29 (HT29): 106.40% | IC50 [1]: > 15 µM | Growth Percent Delta (human tumor cell lines; delta over all cell lines): 25.00% | Growth Percent Mean (human tumor cell lines; mean over all cell lines): 101.69% | Growth Percent Range (human tumor cell lines; range over all cell lines): 49.59% | Growth Percent 786-0 (786-O): 100.25% | Growth Percent COLO 205 (COLO 205): 106.49% | Growth Percent OVCAR-8 (OVCAR-8): 112.41% | Growth Percent HCT-15 (HCT-15): 103.08% | Growth Percent HCC-2998 (HCC-2998): 105.49% | Growth Percent MALME-3M (MALME-3M): 108.70% | Growth Percent NCI/ADR-RES (NCl/ADR-RES): 101.92% | Growth Percent OVCAR-5 (OVCAR-5): 116.60% | Growth Percent SK-MEL-5 (SK-MEL-5): 106.82% | Growth Percent HOP-62 (HOP-62): 91.94% | Growth Percent SNB-75 (SNB-75): 77.25%
